From patent US7018659B2, “Anti-arrhythmic pharmaceutical composition and a process thereof” (Council of Scientific & Industrial Research, priority 2002, dated 2006)

Key:
[1] = system: isolated guineapig auricle; test: Aconitine-induced arrhythmia in isolated guineapig auricle; details: aconitine 15 ng/ml
Description: Isolated guineapig auricle was prepared after Burn J H (1952). Aconitine (15 ng/ml) when added, set up arrhythmia within (40±5) mins. This novel compound (5 ng/ml) could revert arrhythmia to normal within (45±4.2) mins. The normal functioning state was maintained, observed up to 6 hrs. Again, arrhythmia was set in isolated auricle with 2.25 mM CaCl2. Arrhythmia was reverted to normal with the novel compound (5 ng/ml) within (30±3.36) mins of observation.

[2] = system: male Wister albino rats; test: Electrocardiograph studies (hypodynamic heart), aconitine-induced arrhythmia in anaesthetized rats; type: in vivo; details: aconitine 50 μg/100 g infused through the jugular vein
Description: Electrocardiograph studies were conducted on urethane (1.75 g/kg, i.p) anaesthetized male Wister albino rats (150±10 g). Recordings were obtained in lead II. Aconitine (50 μg/100 g) was infused through the jugular vein and arrhythmia was induced within 30±5 mins.

CCN1C[C@]2(COC)[C@H](O)C[C@H](OC)[C@@]34[C@@H]5C[C@@]6(O)[C@H](OC(=O)c7ccccc7)[C@@H]5[C@@](OC(C)=O)([C@@H]([C@H](OC)[C@H]23)[C@@H]14)[C@@H](O)[C@@H]6OC [Aconitine]
time to set up arrhythmia [1]: ≤ 40 ± 5 min
time to induction of arrhythmia [2]: ≤ 30 ± 5 min
